{"source": "patent US20050060764A1", "about": "“Mouse model for bone metabolism” (priority 2003, published 2005)", "note": "Strand notation (5' to 3'): a small letter for the sugar, then the base; units joined by * are phosphorothioate-linked, units joined directly phosphodiester-linked; [ ] holds rarer units or linkages, { } end groups; capitals alone tell only the bases. e = 2'-O-(2-methoxyethyl) (MOE); [5mC] = 5-methylcytosine; d = 2'-deoxy (DNA)", "data": [{"tested_on": "rat RANKL mRNA", "test": "Antisense inhibition of rat RANKL mRNA levels in UMR-106 cells, quantitative real-time PCR (Table 3)", "assay_type": "cell-based", "parameters": "concentration or dose not given beside the values", "details": "averages from three experiments", "in_short": "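UMR-106 cells transfected with antisense oligonucleotides (5-methylcytidine throughout) in triplicate, harvested 16-24 h after treatment. RANKL mRNA quantified by real-time RT-PCR with a FAM/TAMRA probe, using rat GAPDH (JOE/TAMRA probe) as the reference.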", "values": [{"substance": "tctgttaggatccatctgcg (eT*e[5mC]*eT*eG*eT*dT*dA*dG*dG*dA*dT*d[5mC]*d[5mC]*dA*dT*e[5mC]*eT*eG*e[5mC]*eG; antisense) [ISIS 286596, 2′-MOE gapmer targeted to rat RANKL]", "% INHIB (inhibition of rat RANKL mRNA levels)": "at least 40%"}, {"substance": "tgtggccccacaatgtgttg (eT*eG*eT*eG*eG*d[5mC]*d[5mC]*d[5mC]*d[5mC]*dA*d[5mC]*dA*dA*dT*dG*eT*eG*eT*eT*eG; antisense) [ISIS 286607, 2′-MOE gapmer targeted to rat RANKL]", "% INHIB (inhibition of rat RANKL mRNA levels)": "at least 40%"}, {"substance": "tgttggcgtacaggtaatag (eT*eG*eT*eT*eG*dG*d[5mC]*dG*dT*dA*d[5mC]*dA*dG*dG*dT*eA*eA*eT*eA*eG; antisense) [ISIS 286626, 2′-MOE gapmer targeted to rat RANKL]", "% INHIB (inhibition of rat RANKL mRNA levels)": "at least 40%"}, {"substance": "tttgcacggccccttgaaag (eT*eT*eT*eG*e[5mC]*dA*d[5mC]*dG*dG*d[5mC]*d[5mC]*d[5mC]*d[5mC]*dT*dT*eG*eA*eA*eA*eG; antisense) [ISIS 286605, 2′-MOE gapmer targeted to rat RANKL]", "% INHIB (inhibition of rat RANKL mRNA levels)": "at least 40%"}, {"substance": "ttttaacgacatataccatc (eT*eT*eT*eT*eA*dA*d[5mC]*dG*dA*d[5mC]*dA*dT*dA*dT*dA*e[5mC]*e[5mC]*eA*eT*e[5mC]; antisense) [ISIS 286630, 2′-MOE gapmer targeted to rat RANKL]", "% INHIB (inhibition of rat RANKL mRNA levels)": "at least 40%"}, {"substance": "ttttgtacaacgtgggccac (eT*eT*eT*eT*eG*dT*dA*d[5mC]*dA*dA*d[5mC]*dG*dT*dG*dG*eG*e[5mC]*e[5mC]*eA*e[5mC]; antisense) [ISIS 286646, 2′-MOE gapmer targeted to rat RANKL]", "% INHIB (inhibition of rat RANKL mRNA levels)": "at least 40%"}]}, {"tested_on": "mouse RANKL mRNA", "test": "Antisense inhibition of mouse RANKL mRNA levels in C2C12 cells, quantitative real-time PCR (Table 2)", "assay_type": "cell-based", "parameters": "concentration or dose not given beside the values", "details": "averages from three experiments", "procedure": "Cells were seeded into 24-well plates (Falcon-353047 at a density of ˜10,000 cells/cm^2 for use in antisense oligonucleotide transfection.\nCells are treated and data are obtained in triplicate. […] Cells were harvested 16-24 hours after oligonucleotide treatment.\nPCR reagents were obtained from Invitrogen Corporation, (Carlsbad, Calif.).\nProbes and primers to mouse RANKL were designed to hybridize to a mouse RANKL sequence, using published sequence information (GenBank accession number AF013170.1, incorporated herein as SEQ ID NO:ll). For mouse RANKL the PCR primers were: • forward primer: […] (SEQ ID NO:12) • reverse primer: […] (SEQ ID NO: 13) and • the PCR probe was: FAM-[…]-TAMRA (SEQ ID NO: 14) where FAM is the fluorescent reporter dye and TAMRA is the quencher dye. For mouse GAPDH the PCR primers were: • forward primer: […](SEQ ID NO:15) • reverse primer: […](SEQ ID NO:16) and the • PCR probe was: 5′ JOE-[…]-TAMRA 3′ (SEQ ID NO: 17) where JOE is the fluorescent reporter dye and TAMRA is the quencher dye.\nIn accordance with the present invention, a second series of antisense compounds was designed to target different regions of the mouse RANKL RNA, using published sequences (GenBank accession number AF013170.1, incorporated herein as SEQ ID NO: 11). […] All cytidine residues are 5-methylcytidines. […] If present “N.D.” indicates “no data”.", "units": {"% INHIB (inhibition of mouse RANKL mRNA levels)": "%"}, "values": [{"substance": "180788 (antisense eG*eT*eT*e[5mC]*eA*d[5mC]*dA*dA*dA*dG*dG*dT*d[5mC]*d[5mC]*dT*eG*eG*e[5mC]*eA*eG) [compound 180788]", "% INHIB (inhibition of mouse RANKL mRNA levels)": 62}, {"substance": "180789 (antisense eG*e[5mC]*eA*eG*eA*d[5mC]*dT*d[5mC]*d[5mC]*dG*d[5mC]*d[5mC]*dA*d[5mC]*dG*eG*e[5mC]*e[5mC]*e[5mC]*e[5mC]) [compound 180789]", "% INHIB (inhibition of mouse RANKL mRNA levels)": 34}, {"substance": "180790 (antisense eA*eG*e[5mC]*eA*eG*dA*d[5mC]*dT*d[5mC]*d[5mC]*dG*d[5mC]*d[5mC]*dA*d[5mC]*eG*eG*e[5mC]*e[5mC]*e[5mC]) [compound 180790]", "% INHIB (inhibition of mouse RANKL mRNA levels)": 59}, {"substance": "180791 (antisense e[5mC]*e[5mC]*eG*e[5mC]*e[5mC]*dG*dA*dG*d[5mC]*dA*dG*dA*d[5mC]*dT*d[5mC]*e[5mC]*eG*e[5mC]*e[5mC]*eA) [compound 180791]", "% INHIB (inhibition of mouse RANKL mRNA levels)": 44}, {"substance": "180792 (antisense eT*eG*e[5mC]*eT*e[5mC]*d[5mC]*dG*d[5mC]*dG*dA*dT*d[5mC]*dG*dT*dT*e[5mC]*eT*e[5mC]*eT*e[5mC]) [compound 180792]", "% INHIB (inhibition of mouse RANKL mRNA levels)": 77}, {"substance": "180793 (antisense eG*e[5mC]*e[5mC]*e[5mC]*eT*dG*d[5mC]*dT*d[5mC]*d[5mC]*dG*d[5mC]*dG*dA*dT*e[5mC]*eG*eT*eT*e[5mC]) [compound 180793]", "% INHIB (inhibition of mouse RANKL mRNA levels)": 74}, {"substance": "180794 (antisense e[5mC]*e[5mC]*eG*eG*e[5mC]*dG*d[5mC]*dA*dT*dG*dG*d[5mC]*dG*d[5mC]*dG*eG*e[5mC]*eG*e[5mC]*e[5mC]) [compound 180794]", "% INHIB (inhibition of mouse RANKL mRNA levels)": 0}, {"substance": "180795 (antisense eG*e[5mC]*eT*eG*eG*d[5mC]*d[5mC]*d[5mC]*dG*dG*d[5mC]*dG*d[5mC]*dA*dT*eG*eG*e[5mC]*eG*e[5mC]) [compound 180795]", "% INHIB (inhibition of mouse RANKL mRNA levels)": 62}, {"substance": "180796 (antisense eT*e[5mC]*eG*eG*e[5mC]*dT*dG*dG*d[5mC]*d[5mC]*d[5mC]*dG*dG*d[5mC]*dG*e[5mC]*eA*eT*eG*eG) [compound 180796]", "% INHIB (inhibition of mouse RANKL mRNA levels)": 67}, {"substance": "180797 (antisense eT*e[5mC]*eT*e[5mC]*eG*dG*d[5mC]*dT*dG*dG*d[5mC]*d[5mC]*d[5mC]*dG*dG*e[5mC]*eG*e[5mC]*eA*eT) [compound 180797]", "% INHIB (inhibition of mouse RANKL mRNA levels)": 60}, {"substance": "180798 (antisense e[5mC]*e[5mC]*eT*eT*e[5mC]*dG*dT*dG*dT*dG*dG*dG*dA*d[5mC]*dG*e[5mC]*e[5mC]*eG*eG*eG) [compound 180798]", "% INHIB (inhibition of mouse RANKL mRNA levels)": 34}, {"substance": "180799 (antisense e[5mC]*eG*eG*eG*eA*dG*dG*d[5mC]*dG*dG*d[5mC]*dG*dG*dG*dT*eG*eG*e[5mC]*eG*eG) [compound 180799]", "% INHIB (inhibition of mouse RANKL mRNA levels)": 52}, {"substance": "180800 (antisense eA*e[5mC]*eA*eT*eG*dG*dA*dG*d[5mC]*dG*dG*dG*dA*dG*dG*e[5mC]*eG*eG*e[5mC]*eG) [compound 180800]", "% INHIB (inhibition of mouse RANKL mRNA levels)": 54}, {"substance": "180801 (antisense eA*eA*e[5mC]*eA*eT*dG*dG*dA*dG*d[5mC]*dG*dG*dG*dA*dG*eG*e[5mC]*eG*eG*e[5mC]) [compound 180801]", "% INHIB (inhibition of mouse RANKL mRNA levels)": 40}, {"substance": "180803 (antisense eT*e[5mC]*eT*eT*e[5mC]*dA*d[5mC]*dT*d[5mC]*dT*d[5mC]*d[5mC]*dA*dG*dA*eG*eT*e[5mC]*eG*eA) [compound 180803]", "% INHIB (inhibition of mouse RANKL mRNA levels)": 55}, {"substance": "180804 (antisense e[5mC]*eA*eG*eT*eT*d[5mC]*d[5mC]*dT*dT*d[5mC]*dT*dG*d[5mC]*dA*d[5mC]*eG*eG*e[5mC]*e[5mC]*e[5mC]) [compound 180804]", "% INHIB (inhibition of mouse RANKL mRNA levels)": 44}, {"substance": "180805 (antisense eG*eG*e[5mC]*eT*eT*dG*d[5mC]*d[5mC]*dT*d[5mC]*dG*d[5mC]*dT*dG*dG*eG*e[5mC]*e[5mC]*eA*e[5mC]) [compound 180805]", "% INHIB (inhibition of mouse RANKL mRNA levels)": 62}, {"substance": "180808 (antisense eA*eG*e[5mC]*eT*eG*dA*dA*dG*dA*dT*dA*dG*dT*d[5mC]*dT*eG*eT*eA*eG*eG) [compound 180808]", "% INHIB (inhibition of mouse RANKL mRNA levels)": 74}, {"substance": "180810 (antisense eT*e[5mC]*eA*eG*eA*dA*dT*dT*dG*d[5mC]*d[5mC]*d[5mC]*dG*dA*d[5mC]*e[5mC]*eA*eG*eT*eT) [compound 180810]", "% INHIB (inhibition of mouse RANKL mRNA levels)": 83}, {"substance": "180811 (antisense eA*eT*eG*e[5mC]*eT*dA*dA*dT*dT*dT*d[5mC]*dT*dT*d[5mC]*dA*e[5mC]*e[5mC]*eA*eG*e[5mC]) [compound 180811]", "% INHIB (inhibition of mouse RANKL mRNA levels)": 67}, {"substance": "180813 (antisense eA*eT*eG*eT*eT*d[5mC]*d[5mC]*dA*d[5mC]*dG*dA*dA*dA*dT*dG*eA*eG*eT*e[5mC]*eT) [compound 180813]", "% INHIB (inhibition of mouse RANKL mRNA levels)": 48}, {"substance": "180815 (antisense eT*e[5mC]*eA*eT*eA*d[5mC]*dA*d[5mC]*d[5mC]*dG*dT*dG*dG*dG*d[5mC]*e[5mC]*eA*eT*eG*eT) [compound 180815]", "% INHIB (inhibition of mouse RANKL mRNA levels)": 30}, {"substance": "180816 (antisense eA*e[5mC]*e[5mC]*eG*eT*dT*dG*dT*dG*dT*dA*dA*dT*d[5mC]*dA*e[5mC]*e[5mC]*eA*eT*eG) [compound 180816]", "% INHIB (inhibition of mouse RANKL mRNA levels)": 35}, {"substance": "180817 (antisense eG*e[5mC]*eA*eT*e[5mC]*dG*dG*dA*dA*dT*dA*d[5mC]*d[5mC]*dT*d[5mC]*eT*e[5mC]*e[5mC]*e[5mC]*eA) [compound 180817]", "% INHIB (inhibition of mouse RANKL mRNA levels)": 51}, {"substance": "180818 (antisense eT*e[5mC]*eA*eG*eT*dG*dG*d[5mC]*dA*d[5mC]*dA*dT*dG*dT*d[5mC]*e[5mC]*eA*eG*eG*eG) [compound 180818]", "% INHIB (inhibition of mouse RANKL mRNA levels)": 59}, {"substance": "180820 (antisense e[5mC]*eT*eT*eA*eT*dT*dT*dG*d[5mC]*dA*dG*dG*dT*d[5mC]*d[5mC]*e[5mC]*eA*eG*e[5mC]*eG) [compound 180820]", "% INHIB (inhibition of mouse RANKL mRNA levels)": 44}, {"substance": "180821 (antisense e[5mC]*eA*eT*eT*eA*d[5mC]*dA*d[5mC]*d[5mC]*dT*dG*dA*dA*dA*dT*eA*eT*eA*eA*e[5mC]) [compound 180821]", "% INHIB (inhibition of mouse RANKL mRNA levels)": 15}, {"substance": "180822 (antisense eA*eA*eT*e[5mC]*eA*dA*dA*dT*dA*d[5mC]*dT*dA*dT*dA*dG*e[5mC]*eA*e[5mC]*eA*eA) [compound 180822]", "% INHIB (inhibition of mouse RANKL mRNA levels)": 24}, {"substance": "180823 (antisense eT*eA*eA*eA*eT*dA*dT*dT*dT*dT*dG*dA*dA*dT*d[5mC]*eA*eA*eA*eT*eA) [compound 180823]", "% INHIB (inhibition of mouse RANKL mRNA levels)": 9}, {"substance": "180824 (antisense eT*eG*eT*e[5mC]*eA*dA*d[5mC]*dA*dG*dT*dG*dA*dG*dA*d[5mC]*eA*eT*eT*eT*eT) [compound 180824]", "% INHIB (inhibition of mouse RANKL mRNA levels)": 29}, {"substance": "180825 (antisense eG*eT*eA*e[5mC]*eA*dT*dT*dT*dA*dA*dA*dA*d[5mC]*dA*dT*eT*eA*eA*eA*eT) [compound 180825]", "% INHIB (inhibition of mouse RANKL mRNA levels)": 25}]}]}
